Measured values taken from PMC9249127, “Bio-Evaluation of ^99mTc-Labeled Homodimeric Chalcone Derivative as Amyloid-β-Targeting Probe” (Frontiers in Medicine, 2022).
Read-outs that look alike come from different tables or passages of the source.

Columns and labels:
Cytotoxicity MTT assay = assay type: cell-based, Human; details: human, HEK 293 cells, read-out: cell viability
Protocol: (§1) In vitro cytotoxicity studies were performed for DT(Ch)2 in the concentration range of 0.5–50 μg/mL against HEK 293 cell lines seeded in 96-well plates. The experimental procedure followed was in accordance with the previously reported literature ([32]). […] Cell cultures were grown in DMEM (Dulbecco’s modified eagle medium, high glucose) and the culture was supplemented with 1% penicillin streptomycin and 10% FBS (fetal bovine serum). The cells were incubated with different compound concentrations in a 5% CO2 incubator at 37°C. Following the addition of MTT [3-(4,5-dimethylthiazol-2-yl)-2,5-diphenyl-2H-tetrazolium bromide] to each cell (100 μL), the systems were incubated for an additional 4 h. The cell viability was reported in accordance with the mitochondrial activity measured via absorbance at 570 nm. The experiments were performed in triplicates.

HEK 293 cells = test: Cytotoxicity MTT assay; assay type: cell-based, Human; details: 0.5–50 μg/mL, after 48 h of incubation
Protocol: as §1

Hemolysis assay = assay type: cell-based; details: human, red blood cells (washed RBC pellet resuspended in PBS), pH 7.4; RBCs, 0.125–2 mg/mL of ligand
Protocol: In accordance with the previous literature, heparinized blood from healthy volunteers was used for the hemolysis assay ([33]). Blood serum was separated by centrifugation and the obtained RBC pellet was washed with PBS (pH = 7.4) repeatedly. The pellet was finally resuspended in PBS and added in equal amounts to different vials. Similarly, varying concentrations of the ligand in equal volume were incubated with the RBC pellet in the ratio of 8:2 at 37°C. The Triton X-100 and phosphate buffer saline as positive and negative control, respectively, were also incubated with RBCs under similar conditions. A total of 100 μL of solvent was centrifuged and removed at each time point: 15 min, 1, 2, 4, and 24 h. The absorbance of the supernatant was measured at 541 nm wavelength in a 96-well plate by a Synergy 2 Multi-Mode Reader (BioTek Instruments, United States). The experiments were carried out in triplicates and the extent of hemolysis was calculated according to the following formula:
Hemolysisratio=(λ(test)-λ(negativecontrol))/(λ(positivecontrol)-λ(negativecontrol))×100%

[1] = cited from earlier work
Aβ aggregates = details: cited from earlier work

In the case of `CN(C)c1ccc(/C=C/C(=O)c2ccc(OCCNC(=O)CN(CCN(CCN(CC(=O)O)CC(=O)NCCOc3ccc(C(=O)/C=C/c4ccc(N(C)C)cc4)cc3)CC(=O)O)CC(=O)O)cc2)cc1` [DT(Ch)2, 6,9-bis(carboxymethyl)-14-(4-[(E)-3-(4-(dimethylamino)phenyl)acryloyl]phenoxy)-3-(2-[(2-(4-[(E)-3-(4-(dimethylamino)phenyl)acryloyl]phenoxy)ethyl)amino]-2-oxoethyl)-11-oxo-3,6,9,12-tetraazatetradecanoic acid], the viability (Cytotoxicity MTT assay; throughout the concentration range and observation time) is reported as ~85%, the viability (Cytotoxicity MTT assay; up to 24 h) is reported as 88 to 95% and the “toxicity (MTT assay)” value (HEK 293 cells) is reported as < 17%. The hemolysis (Hemolysis assay) was < 5%.
For `O=C([O-])CN(CCN(CC(=O)[O-])CC(=O)[O-])CCN(CC(=O)[O-])CC(=O)[O-].[99Tc+4]` [^99mTc–DTPA], the brain uptake ([1]; after 30 min, known value, no reference given) is given as 0.04%.
In the case of `CNc1ccc(-c2nc3ccc(O)cc3s2)cc1` [PiB, Pittsburgh compound B], the “ratio of brain2min/brain30min” value [1] is given as 12.
In the case of `CN(C)c1ccc(C=CC(=O)c2ccc(I)cc2)cc1` [^125I-DMIC], the Kd (Aβ aggregates) is given as 4.2 nM.
